Experiments:
[1] = system: C57Black/6J mice subjected to CUS; experiment: Forced swimming test (FST) in mice subjected to Chronic Unpredictable Stress (CUS); assay type: in vivo; conditions: MTHF 3 mg/kg, LAC 30 mg/kg; for effect on immobility time in FST / effects of chronic stress (in words): 3 days of treatment; for Total Immobility Time (sec) + SD: i.p. 3 days of treatment, last 4 minutes of 6 min test, n=8
Experimental: The animal study was performed in a validate experimental model subject to Chronic Unpredictable Stress (CUS), as described in J H Cryan et al. in J. Neubiorev. 2005, 03, 009, for a period of 4 weeks to induce the depressive phenotype CUS. The CUS allows the depressive phenotype responsive to standard antidepressant treatments to be reproduced in vivo in mammals. The animals were divided in five groups and the group which received the combination of MTHF with LAC was compared with the groups which received MTHF and LAC separately. All the groups were compared with the group which received saline solution and the group which not submitted to CUS.
The mice were subjected to CUS for 4 weeks, and the drug treatment started at the 3rd week of CUS and maintained until the end of the 4-week treatment.
To assess the antidepressant effects of the selected product LAC and MTHF the animals were submitted to the Forced swimming test (“FST”) as described in J H Cryan et al. in J. Neubiorev. 2005, 03, 009 and measured the Total Immobility Time expressed in the […] of animals.
Forty, 7-week-old male C57Black/6J, mice were subjected to CUS (“Chronic Unpredictable Mild Stress”), a validate model that allow the depressive phenotype as described in J H Cryan et al. in J. Neubiorev. 2005, 03, 009.
The mice were subjected to CUS for 4 weeks, during which different types of stress were applied to the animals twice-a-day in a random and unpredictable manner: one session during the day lasting 1-3 hours, and one session during the night (lasting 12 hours), with at least 6 hours of interval between the two sessions. […]
To assess the antidepressant behavioural effects of the selected product LAC and MEF the animals were submitted to the Forced swimming test (“FST”) as described in J H Cryan et al. in J. Neubiorev. 2005, 03, 009 and the Total Immobility Time measured in the 5 group of animals.
During the test the mice were placed individually for 6 minutes in transparent plexiglass cylinders (25 cm high and 22 cm in diameter) filled with warm water (28° C.), in sufficient quantity to prevent the mouse from touching the bottom of the cylinder with hind legs. The animal was videotaped, and then the immobility time (expressed in seconds) was measured during the last 4 minutes of the test.

BDNF protein = experiment: Western blot of BDNF protein in frontal cortex of CUS mice; assay type: in vivo; conditions: 14 days i.p. treatment, MTHF 3 mg/kg, LAC 30 mg/kg
Experimental: Mice after 4 weeks of CUS and 2 week of pharmacological treatments, as described before, at the end of Week 5 the animals were sacrificed and the level of BDNF protein were measured in Frontal Cortex by western blot.
Drug treatment started at the 3rd week of CUS and it was maintained for 2 weeks, the study ending at Week 5 for the start of the experiment. Behavioural tests were performed 3 days after the beginning of treatments, while post-mortem protein studies in the mouse brain were performed after 14 days of treatment, at the end of Week 5.
Mice were treated as described in Example 19. After 4 weeks of CUS and 2 week of pharmacological treatments (as described in Example 19), at the end of Week 5 the animals were sacrificed and the level of BDNF protein were measured in Hippocampus and Frontal Cortex by western blot. Table 28 reports the protein levels of BDNF, a neuronal trophic factor related to chronic stress and depression, in the Frontal Cortex of mice.
The antibody recognizes the mature form of the 17 KDa BDNF.

`CC(=O)O[C@H](CC(=O)[O-])C[N+](C)(C)C` [LAC, Acetyl L-carnitine] was tested, and the “effect on immobility time in FST / effects of chronic stress (in words)” value [1] was “not antagonised”, the “Total Immobility Time (sec) + SD” value [1] was 245.75 + 30.34 sec and the “Western blot BDNF in frontal cortex, Optical Density bands + SD” value (BDNF protein) was 113.29 + 28.95.

With “calcium L-5-methyl-(6S)-tetrahydrofolate [MTHF]” the “effect on immobility time in FST / effects of chronic stress (in words)” value [1] was “not antagonised”, the “Total Immobility Time (sec) + SD” value [1] was 230 + 14.20 sec and the “Western blot BDNF in frontal cortex, Optical Density bands + SD” value (BDNF protein) was 138.46 + 18.26.

— patent US20230181475A1, “COMPOSITION COMPRISING METHYLFOLATE” (ALFASIGMA S.P.A., priority 2020, published 2023)
